# ChEMBL document CHEMBL3885861, “Open TG-GATES”
# Species: Rattus norvegicus
# Test: Open TG-GATES - Regimen: Single
# Type: toxicity, organism-based, Sprague-Dawley
# Parameters: regimen Single, gender Male, age 6 weeks
# Settings: in vivo, po, 8 mg/kg, route gavage, dose level Low; for APTT / Bas / Eos / Fbg / Hb / Ht / Lym / MCH / MCHC / MCV / Mono / Neu / PT / Plat / RBC / Ret / WBC: tissue Blood; for KIDNEY_L / KIDNEY_R / KIDNEY_TOTAL: tissue Kidney; for LIVER: tissue Liver; for A/G / ALP / ALT / AST / BUN / CRE / Ca / Cl / DBIL / GLC / IP / K / LDH / Na / PL / RALB / TBIL / TC / TG / TP / gamma-GTP: tissue Plasma
smiles,measurement,setting,value
NC1=NC(=O)C(c2ccccc2)O1 (configuration not stated) [PEMOLINE],TERMINAL_BW,3 h,210.1 g
same,APTT,3 h,15.6 s
same,Bas,3 h,0%
same,Eos,3 h,0.6%
same,Fbg,3 h,289.6 mg/dL
same,Hb,3 h,13.2 g/dL
same,Ht,3 h,38.9%
same,Lym,3 h,79.4%
same,MCH,3 h,21.9 pg
same,MCHC,3 h,34.1%
same,MCV,3 h,64.2 fL
same,Mono,3 h,3.2%
same,Neu,3 h,16.2%
same,PT,3 h,13.2 s
same,Plat,3 h,112.1 x10_4/uL
same,RBC,3 h,605.6 x10_4/ul
same,Ret,3 h,9.3%
same,WBC,3 h,89 x10_2/uL
same,KIDNEY_L,3 h,0.9 g
same,KIDNEY_R,3 h,0.9 g
same,KIDNEY_TOTAL,3 h,1.8 g
same,LIVER,3 h,9 g
same,A/G,3 h,1
same,ALP,3 h,1585.2 IU/L
same,ALT,3 h,44 IU/L
same,AST,3 h,83 IU/L
same,BUN,3 h,8.2 mg/dL
same,CRE,3 h,0.2 mg/dL
same,Ca,3 h,10.7 mg/dL
same,Cl,3 h,106.2 meq/L
same,DBIL,3 h,0.014 mg/dL
same,GLC,3 h,174.2 mg/dL
same,IP,3 h,7.9 mg/dL
same,K,3 h,4.1 meq/L
same,LDH,3 h,68.8 IU/L
same,Na,3 h,139.6 meq/L
same,PL,3 h,126.6 mg/dL
same,RALB,3 h,2.7 g/dL
same,TBIL,3 h,0.042 mg/dL
same,TC,3 h,77 mg/dL
same,TG,3 h,45.8 mg/dL
same,TP,3 h,5.3 g/dL
same,gamma-GTP,3 h,1.4 IU/L
same,TERMINAL_BW,6 h,211.2 g
same,APTT,6 h,15.8 s
same,Bas,6 h,0%
same,Eos,6 h,1%
same,Fbg,6 h,309 mg/dL
same,Hb,6 h,13.5 g/dL
same,Ht,6 h,39.8%
same,Lym,6 h,75.6%
same,MCH,6 h,21.9 pg
same,MCHC,6 h,33.9%
same,MCV,6 h,64.6 fL
same,Mono,6 h,3.4%
same,Neu,6 h,19.6%
same,PT,6 h,13.1 s
same,Plat,6 h,112.7 x10_4/uL
same,RBC,6 h,616.4 x10_4/ul
same,Ret,6 h,8.9%
same,WBC,6 h,81.1 x10_2/uL
same,KIDNEY_L,6 h,0.9 g
same,KIDNEY_R,6 h,0.9 g
same,KIDNEY_TOTAL,6 h,1.8 g
same,LIVER,6 h,8.7 g
same,A/G,6 h,1
same,ALP,6 h,1539 IU/L
same,ALT,6 h,44 IU/L
same,AST,6 h,80 IU/L
same,BUN,6 h,8 mg/dL
same,CRE,6 h,0.2 mg/dL
same,Ca,6 h,10.7 mg/dL
same,Cl,6 h,104.8 meq/L
same,DBIL,6 h,0.014 mg/dL
same,GLC,6 h,186.2 mg/dL
same,IP,6 h,9.9 mg/dL
same,K,6 h,3.9 meq/L
same,LDH,6 h,56.8 IU/L
same,Na,6 h,140.6 meq/L
same,PL,6 h,127 mg/dL
same,RALB,6 h,2.8 g/dL
same,TBIL,6 h,0.042 mg/dL
same,TC,6 h,78.4 mg/dL
same,TG,6 h,37.4 mg/dL
same,TP,6 h,5.5 g/dL
same,gamma-GTP,6 h,1.4 IU/L
same,TERMINAL_BW,9 h,209.7 g
same,APTT,9 h,15.9 s
same,Bas,9 h,0%
same,Eos,9 h,1%
same,Fbg,9 h,319.2 mg/dL
same,Hb,9 h,13.3 g/dL
same,Ht,9 h,39.2%
same,Lym,9 h,77.8%
same,MCH,9 h,21.9 pg
same,MCHC,9 h,34%
same,MCV,9 h,64.2 fL
same,Mono,9 h,2.8%
same,Neu,9 h,18%
same,PT,9 h,13.2 s
same,Plat,9 h,117.5 x10_4/uL
same,RBC,9 h,611 x10_4/ul
same,Ret,9 h,9.2%
same,WBC,9 h,91 x10_2/uL
same,KIDNEY_L,9 h,0.9 g
same,KIDNEY_R,9 h,0.9 g
same,KIDNEY_TOTAL,9 h,1.8 g
same,LIVER,9 h,7.7 g
same,A/G,9 h,1
same,ALP,9 h,1372.4 IU/L
same,ALT,9 h,40.6 IU/L
same,AST,9 h,74.2 IU/L
same,BUN,9 h,8.2 mg/dL
same,CRE,9 h,0.2 mg/dL
same,Ca,9 h,10.4 mg/dL
same,Cl,9 h,106 meq/L
same,DBIL,9 h,0.012 mg/dL
same,GLC,9 h,172.2 mg/dL
same,IP,9 h,9.7 mg/dL
same,K,9 h,3.9 meq/L
same,LDH,9 h,57.4 IU/L
same,Na,9 h,140.4 meq/L
same,PL,9 h,122.4 mg/dL
same,RALB,9 h,2.7 g/dL
same,TBIL,9 h,0.044 mg/dL
same,TC,9 h,78.4 mg/dL
same,TG,9 h,28.4 mg/dL
same,TP,9 h,5.3 g/dL
same,gamma-GTP,9 h,1.4 IU/L
same,TERMINAL_BW,24 h,216.4 g
same,APTT,24 h,16.8 s
same,Bas,24 h,0%
same,Eos,24 h,0.8%
same,Fbg,24 h,274.6 mg/dL
same,Hb,24 h,13 g/dL
same,Ht,24 h,38.4%
same,Lym,24 h,77.8%
same,MCH,24 h,22.1 pg
same,MCHC,24 h,33.9%
same,MCV,24 h,65.2 fL
same,Mono,24 h,3.4%
same,Neu,24 h,17.4%
same,PT,24 h,12.9 s
same,Plat,24 h,118.4 x10_4/uL
same,RBC,24 h,590.2 x10_4/ul
same,Ret,24 h,8.1%
same,WBC,24 h,88.3 x10_2/uL
same,KIDNEY_L,24 h,0.9 g
same,KIDNEY_R,24 h,0.9 g
same,KIDNEY_TOTAL,24 h,1.9 g
same,LIVER,24 h,10 g
same,A/G,24 h,1
same,ALP,24 h,1622.2 IU/L
same,ALT,24 h,43 IU/L
same,AST,24 h,70.2 IU/L
same,BUN,24 h,15.2 mg/dL
same,CRE,24 h,0.2 mg/dL
same,Ca,24 h,11 mg/dL
same,Cl,24 h,105 meq/L
same,DBIL,24 h,0.018 mg/dL
same,GLC,24 h,177.8 mg/dL
same,IP,24 h,8.2 mg/dL
same,K,24 h,3.9 meq/L
same,LDH,24 h,61.8 IU/L
same,Na,24 h,142.2 meq/L
same,PL,24 h,133.8 mg/dL
same,RALB,24 h,2.8 g/dL
same,TBIL,24 h,0.03 mg/dL
same,TC,24 h,76 mg/dL
same,TG,24 h,69.4 mg/dL
same,TP,24 h,5.6 g/dL
same,gamma-GTP,24 h,1 IU/L
